Results published in patent publication US7728132B2, “Compositions for stabilizing chlorinated water to sunlight decomposition, and methods of preparation thereof” (Enviro Tech Chemical Services, Inc., priority 2007, dated 2010).

Columns and labels:
[1] = granules in pool water; cited from earlier work
[2] = as reported for prior-art products; cited from earlier work
[3] = Dispensing and dissolution of product in swimming pool; format: physicochemical; settings: 5.85 lb dry solid in 20,000 gallon pool, recirculation pump running
Procedure: The gallon jugs of Examples 2 and 4 were taken to a residential swimming pool of 20,000 gallons estimated volume. The water temperature was 76° F. The sample of Example 2 was mildly shaken and then using a single motion, poured into the 8 foot deep end of the pool near the return pipe from the pump where the turbulence was high. […] Next the gallon jug of Example 4 was emptied into the pool in the same vicinity and same manner. […] The jug was rinsed clean with two aliquots of pool water.
Cyanuric acid wetcake (1405 lb) containing 66% solids is introduced to a 50 cubic foot stainless steel ribbon blender powered by dual 15 HP motors. Soft water (43.9 lb) is added while mixing in the blender. With further blending, solid sodium hydroxide microbeads (288.3 lb) are introduced over a three-minute period. The mixture becomes very hot as evidenced by the large amount of steam that escapes the reaction mixture into the atmosphere. The outside skin of the ribbon blender becomes too hot to touch and a temperature of 130° F. is measured with a digital infrared thermometer. […]
A one-gallon jug of Instant Pool Water Conditioner (Natural Chemistry Inc. of Norwalk, Conn.) was purchased from a local pool store. […] Using a pool brush, the undissolved material was readily dispersed and dissolved with a sweeping action. […]

O=c1[nH]c(=O)[nH]c(=O)[nH]1 [cyanuric acid]
time to dissolve [1]: several days

O=c1[n-]c(=O)[nH]c(=O)[nH]1.[Na+] [monosodium cyanurate]
pH [2]: neutral

O=c1[n-]c(=O)[nH]c(=O)[nH]1.[Na+] [Prospective Example 8, monosodium cyanurate]
time until all is dissolved [3]: ≤ 30 min
